From patent publication US8017786B2, “Substituted β-phenyl-α-hydroxy-propanoic acid, synthesis method and use thereof” (Northwest University, priority 2006, dated 2011)

System: anesthetized rats
Assay: Blood pressure and left ventricular function of anesthetized rats
Type: in vivo, rat
Parameters: contractive pressure, change ratio: unit not given here
Protocol: All data were input into PowerLab/8Sp data acquisition and processing system via RM-6000 multi-channel polygraph, and recorded, analyzed and processed by PowerLab/8Sp.
The abdomen was opened 1.5 cm below xiphoid bone to isolate duodenum, a small incision was formed on the duodenum away from blood vessels by ophthalmic scissors, a catheter was inserted and the incision was fixed by suture for administration. After the end of operation and a further waiting period of 30 min, normal data were recorded once the indexes to be monitored were stable.
Test drugs were duodenally administered via the catheter, and the indexes were monitored 5, 15, 30, 60, 90 and 120 min after the administration. The change ratios of the indexes were calculated in accordance with the following formula, and were used for statistic analysis among groups.

[1] = 9 mg/kg duodenal, 60 min after administration
[2] = 9 mg/kg duodenal, 90 min after administration
[3] = 9 mg/kg duodenal, 120 min after administration
[4] = 9 mg/kg duodenal, before administration
[5] = 18 mg/kg duodenal, 5 min after administration
[6] = 18 mg/kg duodenal, 15 min after administration
[7] = 18 mg/kg duodenal, 30 min after administration
[8] = 18 mg/kg duodenal, 60 min after administration
[9] = 18 mg/kg duodenal, 90 min after administration
[10] = 18 mg/kg duodenal, 120 min after administration
[11] = 18 mg/kg duodenal, before administration
[12] = 18 mg/kg, significant at 15, 30, 60, 90 and 120 min

## CC1(C)C2CCC1(C)C(OC(=O)C(O)Cc1ccc(O)c(O)c1)C2 (stereo not drawn) [bornyl salvianate ester, bornyl β-(3,4-dihydroxylphenyl)-α-hydroxylpropionate ester]
[1]
  contractive pressure, change ratio: −12.63 ± 11.39
  diastolic pressure: 59.10 ± 16.07 mmHg
  diastolic pressure, change ratio: −14.30 ± 13.75
  heart rate: 359.61 ± 39.30 beat/min
  heart rate, change ratio: −4.52 ± 7.13
  left intraventricular pressure: 119.77 ± 23.09 mmHg
  left intraventricular pressure, change ratio: −6.84 ± 8.75
  mean arterial pressure: 77.89 ± 18.11 mmHg
  mean arterial pressure, change ratio: −13.46 ± 12.43
[2]
  change-rate of left intraventricular pressure MAX: 5113.5 ± 1356.4 mmHg/s
  change-rate of left intraventricular pressure MAX, change ratio: −6.4 ± 13.2
  change-rate of left intraventricular pressure, -MAX: −3629.7 ± 1013.3 mm/Hg/s
  change-rate of left intraventricular pressure, -MAX, change ratio: −7.2 ± 13.3
  contractive pressure: 120.90 ± 31.83 mmHg
  contractive pressure, change ratio: −8.80 ± 16.65
  diastolic pressure: 63.12 ± 19.81 mmHg
  diastolic pressure, change ratio: −8.83 ± 17.11
  heart rate: 354.38 ± 62.30 beat/min
  heart rate, change ratio: −4.13 ± 17.94
  left intraventricular pressure: 122.40 ± 26.58 mmHg
  left intraventricular pressure, change ratio: −4.88 ± 11.37
  mean arterial pressure: 82.38 ± 23.18 mmHg
  mean arterial pressure, change ratio: −8.77 ± 16.66
[3]
  change-rate of left intraventricular pressure MAX: 4959.8 ± 1399.0 mmHg/s
  change-rate of left intraventricular pressure MAX, change ratio: −9.7 ± 11.2
  change-rate of left intraventricular pressure, -MAX: −3541.7 ± 917.7 mm/Hg/s
  change-rate of left intraventricular pressure, -MAX, change ratio: −9.2 ± 11.3
  contractive pressure: 120.85 ± 32.13 mmHg
  contractive pressure, change ratio: −9.19 ± 14.65
  diastolic pressure: 62.58 ± 22.20 mmHg
  diastolic pressure, change ratio: −10.28 ± 17.60
  heart rate: 354.09 ± 47.98 beat/min
  heart rate, change ratio: −4.62 ± 12.34
  left intraventricular pressure: 121.85 ± 26.36 mmHg
  left intraventricular pressure, change ratio: −5.47 ± 9.76
  mean arterial pressure: 82.00 ± 25.04 mmHg
  mean arterial pressure, change ratio: −9.71 ± 15.95
[4]
  change-rate of left intraventricular pressure MAX: 5435.8 ± 1200.0 mmHg/s
  change-rate of left intraventricular pressure, -MAX: −3881.3 ± 735.6 mm/Hg/s
  contractive pressure: 132.26 ± 20.00 mmHg
  diastolic pressure: 69.21 ± 15.19 mmHg
  heart rate: 373.43 ± 41.28 beat/min
  left intraventricular pressure: 128.29 ± 18.38 mmHg
  mean arterial pressure: 90.23 ± 16.25 mmHg
9 mg/kg, significant at 15 and 60 min
  mean arterial pressure, systolic pressure and diastolic pressure (in words): exhibited a decrease tendency
9 mg/kg, significant at 60 and 120 min
  dp/dt (in words): exhibited a decrease tendency
9 mg/kg, significant at 60 min
  left intraventricular pressure (in words): exhibited a decrease tendency
[5]
  change-rate of left intraventricular pressure MAX: 5694.7 ± 1264.7 mmHg/s
  change-rate of left intraventricular pressure MAX, change ratio: −0.3 ± 9.3
  change-rate of left intraventricular pressure, -MAX: −4103.4 ± 981.2 mm/Hg/s
  change-rate of left intraventricular pressure, -MAX, change ratio: 0.0 ± 7.8
  contractive pressure: 128.34 ± 28.96 mmHg
  contractive pressure, change ratio: −0.06 ± 12.42
  diastolic pressure: 72.55 ± 16.58 mmHg
  diastolic pressure, change ratio: −1.00 ± 14.79
  heart rate: 358.56 ± 44.88 beat/min
  heart rate, change ratio: 0.22 ± 4.94
  left intraventricular pressure: 131.90 ± 18.96 mmHg
  left intraventricular pressure, change ratio: −0.01 ± 7.29
  mean arterial pressure: 91.15 ± 20.31 mmHg
  mean arterial pressure, change ratio: −0.58 ± 13.53
[6]
  change-rate of left intraventricular pressure MAX: 5470.3 ± 1416.7 mmHg/s
  change-rate of left intraventricular pressure MAX, change ratio: −4.7 ± 11.8
  change-rate of left intraventricular pressure, -MAX: −3991.9 ± 948.6 mm/Hg/s
  change-rate of left intraventricular pressure, -MAX, change ratio: −2.4 ± 9.3
  contractive pressure: 120.90 ± 26.54 mmHg
  contractive pressure, change ratio: −5.49 ± 14.53
  diastolic pressure: 68.87 ± 14.57 mmHg
  diastolic pressure, change ratio: −5.45 ± 15.82
  heart rate: 356.00 ± 40.82 beat/min
  heart rate, change ratio: −0.07 ± 9.93
  left intraventricular pressure: 126.28 ± 18.51 mmHg
  left intraventricular pressure, change ratio: −4.15 ± 8.95
  mean arterial pressure: 86.21 ± 18.29 mmHg
  mean arterial pressure, change ratio: −5.52 ± 14.99
[7]
  change-rate of left intraventricular pressure MAX: 5186.9 ± 1177.3 mmHg/s
  change-rate of left intraventricular pressure MAX, change ratio: −8.9 ± 11.5
  change-rate of left intraventricular pressure, -MAX: −3923.8 ± 879.8 mm/Hg/s
  change-rate of left intraventricular pressure, -MAX, change ratio: −3.9 ± 8.2
  contractive pressure: 117.76 ± 22.90 mmHg
  contractive pressure, change ratio: −7.74 ± 12.22
  diastolic pressure: 66.68 ± 11.95 mmHg
  diastolic pressure, change ratio: −7.68 ± 16.90
  heart rate: 348.07 ± 39.21 beat/min
  heart rate, change ratio: −2.01 ± 12.45
  left intraventricular pressure: 124.81 ± 18.94 mmHg
  left intraventricular pressure, change ratio: −5.46 ± 7.09
  mean arterial pressure: 83.71 ± 15.31 mmHg
  mean arterial pressure, change ratio: −7.79 ± 14.45
[8]
  change-rate of left intraventricular pressure MAX: 4905.3 ± 1047.7 mmHg/s
  change-rate of left intraventricular pressure MAX, change ratio: −12.4 ± 18.7
  change-rate of left intraventricular pressure, -MAX: −3744.3 ± 851.5 mm/Hg/s
  change-rate of left intraventricular pressure, -MAX, change ratio: −7.9 ± 14.0
  contractive pressure: 106.97 ± 32.22 mmHg
  contractive pressure, change ratio: −16.34 ± 19.90
  diastolic pressure: 60.98 ± 16.13 mmHg
  diastolic pressure, change ratio: −15.66 ± 21.14
  heart rate: 357.22 ± 47.10 beat/min
  heart rate, change ratio: 0.39 ± 13.05
  left intraventricular pressure: 120.67 ± 23.43 mmHg
  left intraventricular pressure, change ratio: −8.71 ± 11.64
  mean arterial pressure: 76.31 ± 21.36 mmHg
  mean arterial pressure, change ratio: −16.01 ± 20.44
[9]
  change-rate of left intraventricular pressure MAX: 4676.5 ± 941.1 mmHg/s
  change-rate of left intraventricular pressure MAX, change ratio: −16.7 ± 15.5
  change-rate of left intraventricular pressure, -MAX: −3659.3 ± 806.3 mm/Hg/s
  change-rate of left intraventricular pressure, -MAX, change ratio: −9.2 ± 16.9
  contractive pressure: 104.23 ± 32.16 mmHg
  contractive pressure, change ratio: −18.68 ± 18.21
  diastolic pressure: 60.29 ± 15.88 mmHg
  diastolic pressure, change ratio: −16.74 ± 18.37
  heart rate: 355.33 ± 9.61 beat/min
  heart rate, change ratio: −0.44 ± 6.91
  left intraventricular pressure: 117.91 ± 22.68 mmHg
  left intraventricular pressure, change ratio: −10.81 ± 11.60
  mean arterial pressure: 74.94 ± 21.07 mmHg
  mean arterial pressure, change ratio: −17.64 ± 18.17
[10]
  change-rate of left intraventricular pressure MAX: 5012.6 ± 777.5 mmHg/s
  change-rate of left intraventricular pressure MAX, change ratio: −10.9 ± 12.4
  change-rate of left intraventricular pressure, -MAX: −3692.1 ± 863.3 mm/Hg/s
  change-rate of left intraventricular pressure, -MAX, change ratio: −8.8 ± 16.9
  contractive pressure: 113.34 ± 24.47 mmHg
  contractive pressure, change ratio: −10.88 ± 16.04
  diastolic pressure: 61.54 ± 13.73 mmHg
  diastolic pressure, change ratio: −14.64 ± 19.58
  heart rate: 357.68 ± 53.26 beat/min
  heart rate, change ratio: 0.28 ± 12.04
  left intraventricular pressure: 119.85 ± 22.26 mmHg
  left intraventricular pressure, change ratio: −9.13 ± 13.16
  mean arterial pressure: 78.81 ± 17.04 mmHg
  mean arterial pressure, change ratio: −12.96 ± 17.66
[11]
  change-rate of left intraventricular pressure MAX: 5695.0 ± 1086.8 mmHg/s
  change-rate of left intraventricular pressure, -MAX: −4092.0 ± 905.4 mm/Hg/s
  contractive pressure: 128.25 ± 23.86 mmHg
  diastolic pressure: 73.04 ± 11.87 mmHg
  heart rate: 357.28 ± 36.29 beat/min
  left intraventricular pressure: 131.93 ± 16.79 mmHg
  mean arterial pressure: 91.44 ± 15.44 mmHg
[12]
  dp/dt (in words): significantly decreased
  left intraventricular pressure (in words): significantly decreased
18 mg/kg, significant at 15, 60, 90 and 120 min
  mean arterial pressure, systolic pressure and diastolic pressure (in words): significantly decreased
